Laboratory results as given in article PMC4481117 (Molecular Pain, 2015).

How the values were obtained:
[1] = test system: αMI-domain (active and nonactive forms); test: Solid-phase binding of active and nonactive GST-αMI-domains; conditions: immobilized peptide, 1.5 h at 22 °C, anti-GST detection, 405 nm; means of triplicates, representative of n = 4
Description: Fig. 2 Binding of the active and nonactive αMI-domain conformers to dynorphin. a, the 3D structure of active (PDB ID 1ido) and nonactive (PDB ID 1jlm) αMI-domains are shown as ribbon diagrams. The wells of microtiter plates were coated with different concentrations of dynorphin A (b) and the D100 fragment of fibrinogen (c). The active (●) and nonactive (○) recombinant αMI-domains containing GST fusion parts were added to the wells and incubated for 1.5 h at 22 °C. Bound αMI-domains were detected with an anti-GST mAb followed by an AP-conjugated secondary antibody. Data are the means of triplicate determinations, and error bars represent S.E. Representative experiments in b (n = 4) and c (n = 4) are shown. For multiple comparisons, individual concentrations were tested using t-test with p-value of 0.05 corrected by Bonferroni method and accepting values of 0.007 as significant (**).
Dyn A ([…]), Dyn B ([…]), and control peptide ([…]) were purchased from AnaSpec, Inc (San Jose, CA). […]
Microtiter plates were coated with different concentrations of the fibrinogen D100 fragment or Dyn A overnight at 4 °C and post-coated with 3 % BSA for 1 h. […] After washing, goat anti-mouse IgG conjugated to alkaline phosphatase was added for 1 h and the binding of the αMI-domains was detected by reaction with p-nitrophenyl phosphate measuring the absorbance at 405 nm. […]

[2] = target: T1, Mac-1 (Mac-1-expressing HEK293 cells) (Homo sapiens, UniProt P05107+P11215); test: Adhesion of Mac-1-HEK293 cells to immobilized peptide; assay type: cell-based; conditions: 30 min at 37 °C
T1 construct: expressed in transfected cells
Description: For testing the role of glucosaminoglycans in cell adhesion, dynorphin A-coated wells were preincubated with 100 μl of 10 μg/ml of chondroitin sulfate A, chondroitin sulfate B and heparin. Aliquots (5x10^4cells) were added to the wells coated with 2 μM dynorphin A and adhesion was performed as described in A. Adhesion in the absence of Mac-1 inhibitors and glucosaminoglycans was assigned a value of 100 %. The data shown are the means ± S.E. from four separate experiments each with triplicate measurements. d , microtiter plate wells were coated with different concentrations of dynorphin B and adhesion of Mac-1-expressing and wild-type HEK293 cells was determined as described in A. The data shown are means of triplicate determinations, and error bars represent S.E. The figure is representative of 5 experiments. e. calcein-labeled Mac-1-HEK293 cells were preincubated without or with 10 μg/ml of mAb 44a and heparin, added to the wells coated with 20 μM of dynorphin B and adhesion was performed as described in A. Adhesion in the absence of inhibitors was assigned a value of 100 %.
Adhesion assays were performed essentially as described previously. […] Cells were labeled with 10 μM calcein for 30 min at 37 °C and washed twice with Hanks’ Balanced salt solution (HBSS) containing 0.1 % BSA. Aliquots (100 μl) of labeled cells (5x10^5/ml) were added to each well and allowed to adhere for 30 min at 37 °C. The non-adherent cells were removed by two washes with PBS. Fluorescence was measured in a CytoFluorII fluorescence plate reader (Perceptive Biosystems, Framingham, MA). In inhibition experiments, cells were mixed with different concentrations of peptides, NIF or mAbs for 20 min at 22 °C before they were added to the wells coated with adhesive substrates. In a separate set of experiments, after coating plates with dynorphins and post-coating with 1 % PVP, plates were incubated with 100 μl of 10 μg/ml chondroitin sulfate A, chondroitin sulfate B, or heparin for 20 min at 22 °C. After aspirating the solution, labeled cells were added and cell adhesion was analyzed as above.

wild-type HEK293 cells = test: Translocation of Dyn A into wild-type HEK293 cells (immunolabeling); assay type: cell-based, Human; conditions: 20 μM Dyn A, 40 min at 37 °C
Description: Fig. 5 Translocation of Dyn A into cells. Mac-1-expressing (a) and wild-type HEK293 (b) cells were incubated with 20 μM and 100 μM of Dyn A for 40 min at 37 °C, fixed, permeabilized and incubated with anti-dynorphin antibodies followed by Alexa Fluor 488-conjugated secondary goat anti-rabbit antibodies. No labeling was detected in the absence of primary antibody. c, Enlarged images of Dyn A-accumulated Mac-1- and wild-type HEK cells shown in a and b. d, Quantification of fluorescent cells shown in a and b
Mac-1-HEK 293 and wild-type HEK 293 cells were incubated for 10 min with different concentrations (0–100 μM) of Dyn A and allowed to adhere to glass coverslips coated with poly-Lysine for 30 min. Adherent cells were fixed in 2 % paraformaldehyde solution, permeabilized with 0.1 % Tween-20, and blocked with 10 % normal goat serum plus 1 % BSA. The coverslips were incubated with 5 μg/ml polyclonal anti-Dyn A antibody followed by an secondary goat anti-rabbit antibody conjugated to Alexa Fluor 488 (1:1000). Images were taken using a Leica DM 4000B microscope (Leica, Buffalo Grove, IL).

CC[C@H](C)[C@H](NC(=O)[C@H](CCCNC(=N)N)NC(=O)[C@H](CCCNC(=N)N)NC(=O)[C@H](CC(C)C)NC(=O)[C@H](Cc1ccccc1)NC(=O)CNC(=O)CNC(=O)[C@@H](N)Cc1ccc(O)cc1)C(=O)N[C@@H](CCCNC(=N)N)C(=O)N1CCC[C@H]1C(=O)N[C@@H](CCCCN)C(=O)N[C@@H](CC(C)C)C(=O)N[C@@H](CCCCN)C(=O)N[C@@H](Cc1c[nH]c2ccccc12)C(=O)N[C@@H](CC(=O)O)C(=O)N[C@@H](CC(N)=O)C(=O)N[C@@H](CCC(N)=O)C(=O)O [Dyn A]
Difference in binding of active and nonactive αMI-domains [1]: No significant difference in binding of active and nonactive αMI-domains | Coating concentration giving saturable adhesion ([2]; Mac-1-HEK293 cells): ~ 2 μM | Adhesion of Mac-1-HEK293 cells (in words) ([2]; coated wells, calcein-labeled cells): strongly adhered | EC50 ([2]; read-out: Coating concentration required to reach 50 % of maximal cell adhesion, Mac-1-HEK293 cells, fluorescence of calcein): 0.2 to 0.5 µM | Localization of Dyn A in wild-type HEK293 cells (wild-type HEK293 cells): entering inside wild-type HEK293 cells
